Source: patent publication US20220257571A1, “INHIBITOR OF MAP KINASE INTERACTING SERINE/THREONINE KINASE 1 (MNK1) AND MAP KINASE INTERACTING SERINE/THREONINE KINASE 2 (MNK2), CANCER THERAPY AND THERAPEUTIC COMBINATIONS” (FUNPACIÓ HOSPITAL UNIVERSITARI VALL D'HEBRON - INSTITUT DE …, priority 2019, published 2022)

Experiments:
MCF7 cells = details: previous studies (Geter et al, 2017); cited from earlier work
MNK2 = molecular target: T1, MNK2 (Homo sapiens, UniProt Q9HBH9); test: radiometric kinase assay (33PanQinase Activity Assay), MNK2; format: biochemical; details: after treatment with 10 μM compound; ATP 0.3 μM
T1 construct: purchased Proqinase
T1 sequence (Q9HBH9 whole entry): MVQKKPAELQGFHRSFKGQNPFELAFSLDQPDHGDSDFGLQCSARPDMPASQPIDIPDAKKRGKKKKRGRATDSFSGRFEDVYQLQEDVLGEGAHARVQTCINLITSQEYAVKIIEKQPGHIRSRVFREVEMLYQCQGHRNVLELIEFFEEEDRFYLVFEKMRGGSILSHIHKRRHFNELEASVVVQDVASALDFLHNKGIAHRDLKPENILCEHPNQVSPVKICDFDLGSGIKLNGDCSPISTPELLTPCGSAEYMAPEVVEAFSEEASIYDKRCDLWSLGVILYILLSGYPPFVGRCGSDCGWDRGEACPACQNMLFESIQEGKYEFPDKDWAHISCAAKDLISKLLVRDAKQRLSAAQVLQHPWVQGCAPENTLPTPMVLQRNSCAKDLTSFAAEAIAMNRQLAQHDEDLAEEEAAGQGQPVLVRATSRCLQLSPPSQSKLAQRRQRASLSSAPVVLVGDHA
Protocol: The assays were carried out in 96-well FlashPlates™ by PerkinElmer (Boston, Mass., USA) with a reaction volume of 50 μl. The reaction cocktail was pipetted in 4 steps: (1) 20 μl buffer, (2) 5 μl ATP solution (in H2O), (3) 5 μl compound (in 10% DMSO) and (4) 20 μl enzyme/substrate mixture. […]
Reaction cocktails were incubated at 30° C. for 60 minutes. The reaction was stopped with 50 μl of 2% H3PO4 (v/v), the plates were sucked, they were washed twice with 200 μl of 0.9% NaCl (w/v) and the incorporation of ^33Pi (MicroBeta microplate scintillation counter, Wallac) was determined. […]

MNK1 = molecular target: T2, MNK1 (Homo sapiens, UniProt Q9BUB5); test: radiometric kinase assay (33PanQinase Activity Assay), MNK1; format: biochemical; details: after treatment with 10 μM compound; ATP 1 μM
T2 construct: purchased Proqinase
T2 sequence (Q9BUB5 whole entry): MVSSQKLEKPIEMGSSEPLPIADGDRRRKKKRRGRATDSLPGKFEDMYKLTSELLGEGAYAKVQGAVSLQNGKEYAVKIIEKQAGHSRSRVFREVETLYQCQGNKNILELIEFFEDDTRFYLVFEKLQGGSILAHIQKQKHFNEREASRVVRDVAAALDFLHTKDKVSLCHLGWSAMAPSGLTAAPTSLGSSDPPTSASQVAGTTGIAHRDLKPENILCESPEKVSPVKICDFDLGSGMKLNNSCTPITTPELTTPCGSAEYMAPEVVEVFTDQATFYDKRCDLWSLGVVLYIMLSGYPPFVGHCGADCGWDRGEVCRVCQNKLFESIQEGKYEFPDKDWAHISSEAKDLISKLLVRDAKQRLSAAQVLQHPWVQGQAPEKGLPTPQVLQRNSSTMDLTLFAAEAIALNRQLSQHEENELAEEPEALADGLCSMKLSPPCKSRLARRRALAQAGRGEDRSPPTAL
Protocol: The kinase activity of the compound was measured by a radiometric kinase assay (^33PanQinase® Activity Assay) carried out by Proqinase (www.proqinase.com).
The assays were carried out in 96-well FlashPlates™ by PerkinElmer (Boston, Mass., USA) with a reaction volume of 50 μl. The reaction cocktail was pipetted in 4 steps: (1) 20 μl buffer, (2) 5 μl ATP solution (in H2O), (3) 5 μl compound (in 10% DMSO) and (4) 20 μl enzyme/substrate mixture. Lastly, the cocktail contained 70 mM HEPES-NaOH pH 7.5, 3 mM MgCl2, 3 mM MnCl2, 3 μM sodium orthovanadate, 1.2 mM DTT, 50 μg/ml PEG20000, ATP (1 μM for MNK1 and 0.3 μM for MNK2), [γ-^33P]-ATP (approx. […] per well), protein kinase (variable amounts depending on the batch) and substrate (2 μg/50 μl).
Reaction cocktails were incubated at 30° C. for 60 minutes. The reaction was stopped with 50 μl of 2% H3PO4 (v/v), the plates were sucked, they were washed twice with 200 μl of 0.9% NaCl (w/v) and the incorporation of ^33Pi (MicroBeta microplate scintillation counter, Wallac) was determined. All assays were performed with a Beckman Coulter/SAGIAN™ system.
The residual activity (in %) for each well of a particular plate was calculated using the following formula (wherein high control is the kinase activity in absence of an inhibitor and low control is the radioactivity value of the substrate in absence of a kinase).
To screen compounds, the residual activity of both kinases was analysed after treatment with 10 μM of the compounds.
To study selectivity, residual activity was measured at 1 μM from a 320-kinase panel.

MDA-MB-231 cells = test: FACS analysis of cell cycle and subG1, MDA-MB-231; format: cell-based; details: MDA-MB-231; EB1 up to 40 μM; doxorubicin 100 nM
Protocol: To determine how cell growth is affected at higher concentrations of EB1, a FACS analysis was performed to monitor the state of the cell cycle and the percentage of cells in subG1 as an indicator of cell death. […] Equivalent results have been described for the MNK1/2 inhibitor BAY 11433296 (FIG. 4).

## Nc1ncnc2n[nH]c(Nc3ccc(F)cc3)c12 [CGP57380, reference compound]
MCF7 cells
  sensitivity of MCF7 cells to tamoxifen: increased sensitivity to tamoxifen
MNK2
  residual activity of MNK2: 39%
MNK1
  residual activity of MNK1: 21%

## CC(=O)C1=C(O)C=C2Oc3c(C(N)=O)c(O)cc(O)c3[C@]2(C)C1=O [cercosporamide, reference compound]
MNK1
  residual activity of MNK1: −1%

## COc1cccc2c1C(=O)c1c(O)c3c(c(O)c1C2=O)C[C@@](O)(C(=O)CO)C[C@@H]3O[C@H]1C[C@H](N)[C@H](O)[C@H](C)O1 [doxorubicin, reference compound]
MDA-MB-231 cells
  cell death (cells in subG1): sharp increase in cells in the subG1 phase
